Results published in PubChem BioAssay (NCI).
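The compound was tested at five concentrations on cells cultured in 96-well plates, with a 48-hour exposure period. GI50 is the concentration that inhibits growth by half. TGI marks complete inhibition of growth.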

How the values were obtained:
Assay in all cases: NCI tumour cell line growth inhibition, 48 h
NCI/ADR-RES ovarian = test system: NCI/ADR-RES ovarian
MDA-MB-231 breast = test system: MDA-MB-231 breast
NCI-H226 lung = test system: NCI-H226 lung
MALME-3M melanoma = test system: MALME-3M melanoma
A498 renal = test system: A498 renal
786-0 renal = test system: 786-0 renal
EKVX NSCLC = test system: EKVX NSCLC
NCI-H522 lung = test system: NCI-H522 lung
A549 NSCLC = test system: A549 NSCLC
M14 melanoma = test system: M14 melanoma
SF-539 CNS = test system: SF-539 CNS

Compound CN(C)CCC(C(=O)C(C)(C)C)c1ccccn1 (stereo not given) has a TGI (NCI/ADR-RES ovarian) greater than 100 µM, a TGI (MDA-MB-231 breast) greater than 100 µM and a TGI (NCI-H226 lung) greater than 100 µM. For the same compound, the TGI (MALME-3M melanoma) was greater than 100 µM, the TGI (A498 renal) was greater than 100 µM and the TGI (786-0 renal) was greater than 100 µM. The TGI (EKVX NSCLC) was greater than 100 µM, the TGI (NCI-H522 lung) was greater than 100 µM and the TGI (A549 NSCLC) was greater than 100 µM. For the same compound, the TGI (M14 melanoma) was greater than 100 µM.

Work on C[C@]12CC[C@H](O)CC1=CC[C@@H]1[C@@H]2CC[C@]2(C)C(=O)CC[C@@H]12 yielded a TGI (NCI/ADR-RES ovarian) greater than 100 µM, a TGI (NCI-H226 lung) greater than 100 µM and a TGI (MALME-3M melanoma) greater than 100 µM. For the same compound, the TGI (SF-539 CNS) was greater than 100 µM, the TGI (786-0 renal) was greater than 100 µM and the TGI (EKVX NSCLC) was greater than 100 µM. It also gave a TGI (NCI-H522 lung) greater than 100 µM, a TGI (A549 NSCLC) greater than 100 µM and a TGI (M14 melanoma) greater than 100 µM.

Work on C=CCC1=CC2(OC)C(=O)C(OC)(OC)C1C1C(OC)(OC)C(=O)C(OC)=CC12CC=C (stereo not given) yielded a TGI (NCI/ADR-RES ovarian) greater than 100 µM, a TGI (MDA-MB-231 breast) greater than 100 µM and a TGI (MALME-3M melanoma) greater than 100 µM. The TGI (SF-539 CNS) was greater than 100 µM, the TGI (A498 renal) was greater than 100 µM and the TGI (786-0 renal) was greater than 100 µM. It also gave a TGI (EKVX NSCLC) greater than 100 µM, a TGI (NCI-H522 lung) greater than 100 µM and a TGI (A549 NSCLC) greater than 100 µM. For the same compound, the TGI (M14 melanoma) was greater than 100 µM.

CO[C@]12C[C@H](CNC(=O)c3cc(Br)c(Br)[nH]3)O[C@H]1NC(=O)N2 showed a TGI (NCI/ADR-RES ovarian) greater than 100 µM, a TGI (MDA-MB-231 breast) greater than 100 µM and a TGI (NCI-H226 lung) greater than 100 µM. For the same compound, the TGI (MALME-3M melanoma) was greater than 100 µM, the TGI (SF-539 CNS) was greater than 100 µM and the TGI (A498 renal) was greater than 100 µM. The TGI (786-0 renal) was greater than 100 µM, the TGI (EKVX NSCLC) was greater than 100 µM and the TGI (NCI-H522 lung) was greater than 100 µM. The TGI (A549 NSCLC) was greater than 100 µM and the TGI (M14 melanoma) was greater than 100 µM.

CC(O)=NC(Cc1ccc2ccccc2c1)C(O)=NC(Cc1ccc(Cl)cc1)C(O)=NC(Cc1c[nH]c2ccccc12)C(O)=NC(CO)C(O)=NC(Cc1ccc(O)cc1)C(O)=NC(CCCN=C(N)N)C(O)=NC(CC(C)C)C(O)=NC(CCCN=C(N)N)C(=O)N1CCCC1C(O)=NC(C)C(=N)O (stereo not given) gave a TGI (NCI/ADR-RES ovarian) greater than 100 µM, a TGI (MDA-MB-231 breast) greater than 100 µM and a TGI (NCI-H226 lung) of 80.7 µM. For the same compound, the TGI (MALME-3M melanoma) was greater than 100 µM, the TGI (SF-539 CNS) was 99.7 µM and the TGI (A498 renal) was greater than 100 µM. It also gave a TGI (786-0 renal) greater than 100 µM, a TGI (EKVX NSCLC) greater than 100 µM and a TGI (NCI-H522 lung) of 93 µM. For the same compound, the TGI (A549 NSCLC) was greater than 100 µM and the TGI (M14 melanoma) was greater than 100 µM.

In the case of NC(N)=N/N=C/c1ccc(O)c(C(=O)O)c1, the TGI (NCI/ADR-RES ovarian) was greater than 100 µM, the TGI (MDA-MB-231 breast) was greater than 100 µM and the TGI (NCI-H226 lung) was greater than 100 µM. The TGI (MALME-3M melanoma) was greater than 100 µM, the TGI (SF-539 CNS) was greater than 100 µM and the TGI (A498 renal) was greater than 100 µM. For the same compound, the TGI (786-0 renal) was greater than 100 µM, the TGI (NCI-H522 lung) was greater than 100 µM and the TGI (A549 NSCLC) was greater than 100 µM. For the same compound, the TGI (M14 melanoma) was greater than 100 µM.

In the case of COc1ccc(-n2cc(-c3ccc(OC)c(OC)c3)nc2SCc2ccccc2)cc1Cl, the GI50 (NCI/ADR-RES ovarian) was 42.7 µM, the TGI (NCI/ADR-RES ovarian) was greater than 100 µM and the GI50 (MDA-MB-231 breast) was 26.9 µM. The TGI (MDA-MB-231 breast) was greater than 100 µM, the GI50 (NCI-H226 lung) was 40.4 µM and the TGI (NCI-H226 lung) was greater than 100 µM. It also gave a GI50 (SF-539 CNS) of 24.5 µM, a TGI (SF-539 CNS) of 79.5 µM and a GI50 (A498 renal) of 22.3 µM. It also gave a TGI (A498 renal) greater than 100 µM, a GI50 (EKVX NSCLC) of 13.8 µM and a TGI (EKVX NSCLC) of 64.7 µM. For the same compound, the GI50 (NCI-H522 lung) was 13.2 µM, the TGI (NCI-H522 lung) was 98.4 µM and the GI50 (A549 NSCLC) was 21.3 µM. The TGI (A549 NSCLC) was greater than 100 µM, the GI50 (M14 melanoma) was 26 µM and the TGI (M14 melanoma) was greater than 100 µM.

In the case of COc1cc(NCc2ccc3n2-c2ccccc2OC3)cc(OC)c1OC, the TGI (NCI/ADR-RES ovarian) was 22.5 µM, the TGI (MDA-MB-231 breast) was 34.1 µM and the TGI (NCI-H226 lung) was greater than 100 µM. The TGI (MALME-3M melanoma) was 50.9 µM, the TGI (A498 renal) was 33.8 µM and the TGI (786-0 renal) was greater than 100 µM. For the same compound, the TGI (EKVX NSCLC) was 45.1 µM, the TGI (NCI-H522 lung) was 40.7 µM and the TGI (A549 NSCLC) was greater than 100 µM. It also gave a TGI (M14 melanoma) greater than 100 µM.

Work on Oc1ccc2ccccc2c1Cc1c(O)ccc2ccccc12 yielded a TGI (NCI/ADR-RES ovarian) of 37.4 µM, a TGI (MDA-MB-231 breast) of 40.9 µM and a TGI (NCI-H226 lung) of 45.5 µM. The TGI (MALME-3M melanoma) was 28.9 µM, the TGI (SF-539 CNS) was 42.2 µM and the TGI (A498 renal) was 39.4 µM. For the same compound, the TGI (786-0 renal) was 41.7 µM, the TGI (EKVX NSCLC) was 32.6 µM and the TGI (NCI-H522 lung) was 26 µM. The TGI (A549 NSCLC) was 39.9 µM and the TGI (M14 melanoma) was 34.9 µM.
